Values of other authors in patent US6872734B2, “Use of tiagabine for treatment of diabetic neuropathy and migraine” (Abbott Laboratories, priority 2000, dated 2005).

Tested on: GABA uptake
Details: for inhibition of GABA uptake: according to J. Pharm. Exp. Therap., 228 (1984), 109

SMILES: Cc1ccsc1C(=CCCN1CCC[C@@H](C(=O)O)C1)c1sccc1C [(R)-N-[4,4-Bis(3-methyl-2-thienyl)-3-butenyl]nipecotic acid]
- GABA uptake inhibitory properties (acid and salts thereof, cf. U.S. Pat. No. 5,010,090): effective GABA uptake inhibitory compounds

SMILES: O=C(O)C1CCCN(CCC=C(c2ccccc2)c2ccccc2)C1 (stereo not shown) [SK&F 89976A, N-(4,4-diphenyl-3 butenyl)nipecotic acid]
- inhibition of GABA uptake: active inhibitors of GABA uptake

SMILES: O=C(O)C1=CCCN(CCC=C(c2ccccc2)c2ccccc2)C1 [SK&F 100330A, N-(4,4-diphenyl-3-butenyl)guvacine]
- inhibition of GABA uptake: active inhibitors of GABA uptake

SMILES: O=C(O)C1CCCN(CCC=C(c2ccccc2)c2cccs2)C1 (stereo not shown) [SK&F 100604J, N-(4-phenyl-4-(2-thienyl)-3-butenyl)nipecotic acid]
- inhibition of GABA uptake: active inhibitors of GABA uptake
